Data as given in patent publication US10793520B2, “Sulfonylaminobenzamide compound and pest control agent” (Nippon Soda Co., Ltd., priority 2016, dated 2020).

Each molecule was assayed on Mythimna separata (assay: Efficacy test against Mythimna separata (treated artificial feed)). Conditions: in vivo.
Experimental: Five parts of the compound of the present invention, 93.6 parts of dimethylformamide and 1.4 parts of a polyoxyethylene alkyl aryl ether were mixed together and dissolved to obtain an emulsion (1) containing 5% of the active constituent.
The mortality rate was calculated using the following equation. Mortality rate (%)=(number of dead pests/number of test pests)×100
First, 0.8 g of an artificial feed (Insecta LFS, manufactured by Nosan Corporation) and 1 μl of the emulsion (I) were mixed thoroughly, and 0.2 g of the resulting mixture was placed in each of the treatment areas of a plastic test container (volume: 1.4 ml) to complete preparation of a test feed.
Two second-instar larvae of Mythimna separata were inoculated into each treatment area, and the test container was sealed with a plastic lid. The sealed container was placed in a temperature-controlled room at 25° C., and the mortality rate and the amount of feed consumed were determined on the fifth day. The test was repeated. Further, a test performed under the same conditions, but with the exception of excluding the compound of the present invention from the emulsion (1), was used as a control.
With `CC(C)C(NC(=O)c1ccc(C(F)(F)F)cc1NS(=O)(=O)C(F)(F)F)c1ccc(Cl)cc1` (racemic) [b-3] the “mortality rate against Mythimna separata, or amount of feed consumed relative to control” value was 100%, or the amount of feed consumed was 10% or less.
In the case of `O=C(Nc1cc(C(F)(F)F)cc(C(F)(F)F)c1)c1ccc(Cl)cc1NS(=O)(=O)C(F)(F)F` [a-1], the “mortality rate against Mythimna separata, or amount of feed consumed relative to control” value was 100%, or the amount of feed consumed was 10% or less.
With `O=C(Nc1ccc(F)c(C(F)(F)F)c1)c1ccc(C(F)(F)F)cc1NS(=O)(=O)C(F)(F)F` [a-2] the “mortality rate against Mythimna separata, or amount of feed consumed relative to control” value was 100%, or the amount of feed consumed was 10% or less.
In the case of `O=C(Nc1cc(C(F)(F)F)cc(C(F)(F)F)c1)c1ccc(C(F)(F)F)cc1NS(=O)(=O)C(F)(F)F` [a-3], the “mortality rate against Mythimna separata, or amount of feed consumed relative to control” value was 100%, or the amount of feed consumed was 10% or less.
For `O=C(Nc1ccc(C(F)(F)F)cc1)c1ccc(C(F)(F)F)cc1NS(=O)(=O)C(F)(F)F` [a-4], the “mortality rate against Mythimna separata, or amount of feed consumed relative to control” value was 100%, or the amount of feed consumed was 10% or less.
For `O=C(Nc1ccc(C(F)(F)F)cc1Cl)c1ccc(C(F)(F)F)cc1NS(=O)(=O)C(F)(F)F` [a-7], the “mortality rate against Mythimna separata, or amount of feed consumed relative to control” value was 100%, or the amount of feed consumed was 10% or less.
With `O=C(Nc1ccc(C(F)(F)F)cn1)c1ccc(C(F)(F)F)cc1NS(=O)(=O)C(F)(F)F` [a-8] the “mortality rate against Mythimna separata, or amount of feed consumed relative to control” value was 100%, or the amount of feed consumed was 10% or less.
For `O=C(Nc1ccc(C(F)(F)F)c(Cl)c1)c1ccc(C(F)(F)F)cc1NS(=O)(=O)C(F)(F)F` [a-10], the “mortality rate against Mythimna separata, or amount of feed consumed relative to control” value was 100%, or the amount of feed consumed was 10% or less.
In the case of `O=C(Nc1cc(C(F)(F)F)ccc1F)c1ccc(C(F)(F)F)cc1NS(=O)(=O)C(F)(F)F` [a-11], the “mortality rate against Mythimna separata, or amount of feed consumed relative to control” value was 100%, or the amount of feed consumed was 10% or less.
With `O=C(Nc1cccc(OC(F)(F)F)c1)c1ccc(C(F)(F)F)cc1NS(=O)(=O)C(F)(F)F` [a-12] the “mortality rate against Mythimna separata, or amount of feed consumed relative to control” value was 100%, or the amount of feed consumed was 10% or less.
With `Cc1ccc(NC(=O)c2ccc(C(F)(F)F)cc2NS(=O)(=O)C(F)(F)F)cc1` [a-13] the “mortality rate against Mythimna separata, or amount of feed consumed relative to control” value was 100%, or the amount of feed consumed was 10% or less.
`O=C(Nc1ccc(Cl)cc1)c1ccc(C(F)(F)F)cc1NS(=O)(=O)C(F)(F)F` [a-14] was tested, and the “mortality rate against Mythimna separata, or amount of feed consumed relative to control” value was 100%, or the amount of feed consumed was 10% or less.
`O=C(Nc1ccc(OC(F)(F)F)cc1)c1ccc(C(F)(F)F)cc1NS(=O)(=O)C(F)(F)F` [a-15] was tested, and the “mortality rate against Mythimna separata, or amount of feed consumed relative to control” value was 100%, or the amount of feed consumed was 10% or less.
In the case of `O=C(Nc1ccc(F)c(C(F)(F)F)c1)c1cc(F)c(F)cc1NS(=O)(=O)C(F)(F)F` [a-16], the “mortality rate against Mythimna separata, or amount of feed consumed relative to control” value was 100%, or the amount of feed consumed was 10% or less.
`O=C(Nc1c(Cl)cc(C(F)(F)F)cc1Cl)c1ccc(C(F)(F)F)cc1NS(=O)(=O)C(F)(F)F` [a-18] was tested, and the “mortality rate against Mythimna separata, or amount of feed consumed relative to control” value was 100%, or the amount of feed consumed was 10% or less.
In the case of `O=C(Nc1ncc(C(C(F)(F)F)C(F)(F)F)s1)c1ccc(C(F)(F)F)cc1NS(=O)(=O)C(F)(F)F` [a-19], the “mortality rate against Mythimna separata, or amount of feed consumed relative to control” value was 100%, or the amount of feed consumed was 10% or less.
In the case of `Cc1cc(C(F)(C(F)(F)F)C(F)(F)F)ccc1NC(=O)c1ccc(C(F)(F)F)cc1NS(=O)(=O)C(F)(F)F` [a-20], the “mortality rate against Mythimna separata, or amount of feed consumed relative to control” value was 100%, or the amount of feed consumed was 10% or less.
`CN(c1cc(C(F)(F)F)ccc1C(=O)Nc1ccc(F)c(C(F)(F)F)c1)S(=O)(=O)C(F)(F)F` [a-21] was tested, and the “mortality rate against Mythimna separata, or amount of feed consumed relative to control” value was 100%, or the amount of feed consumed was 10% or less.
For `O=C(Nc1ccc(Cl)c(Cl)c1)c1ccc(C(F)(F)F)cc1NS(=O)(=O)C(F)(F)F` [a-22], the “mortality rate against Mythimna separata, or amount of feed consumed relative to control” value was 100%, or the amount of feed consumed was 10% or less.
